Measured values published in the NIST ThermoML archive (doi:10.1016/j.fluid.2006.07.013).

Assay: xn = mol fraction of the nth substance listed

CC(C)COC(=O)CCCCC(=O)OCC(C)C [diisobutyl adipate] + O=C=O
Details | mass density [kg/m3]
294.75 K, Liquid, Volume and mass of phase, x1 = 0.11 | 807
295.25 K, Liquid, Volume and mass of phase, x1 = 0.039 | 795
298.95 K, Liquid, Volume and mass of phase, x1 = 0.11 | 805
302.75 K, Liquid, Volume and mass of phase, x1 = 0.096 | 814
304.65 K, Liquid, Volume and mass of phase, x1 = 0.11 | 805
305.35 K, Gas, volume and mass of phase, x1 = 0.011 | 702
305.75 K, Liquid, Volume and mass of phase, x1 = 0.039 | 764
308.85 K, Liquid, Volume and mass of phase, x1 = 0.11 | 791
310.35 K, Liquid, Volume and mass of phase, x1 = 0.064 | 793
311.05 K, Gas, volume and mass of phase, x1 = 0.011 | 667
311.25 K, Liquid, Volume and mass of phase, x1 = 0.161 | 865
311.95 K, Liquid, Volume and mass of phase, x1 = 0.592 | 813
312.15 K, Liquid, Volume and mass of phase, x1 = 0.282 | 853
314.45 K, Liquid, Volume and mass of phase, x1 = 0.11 | 789
316.85 K, Liquid, Volume and mass of phase, x1 = 0.039 | 739
322.15 K, Liquid, Volume and mass of phase, x1 = 0.096 | 800
322.55 K, Liquid, Volume and mass of phase, x1 = 0.11 | 791
323.65 K, Liquid, Volume and mass of phase, x1 = 0.282 | 832
329.95 K, Gas, volume and mass of phase, x1 = 0.011 | 639
330.75 K, Liquid, Volume and mass of phase, x1 = 0.11 | 766
332.65 K, Liquid, Volume and mass of phase, x1 = 0.039 | 732
332.75 K, Liquid, Volume and mass of phase, x1 = 0.592 | 829
337.45 K, Liquid, Volume and mass of phase, x1 = 0.282 | 821
342.05 K, Liquid, Volume and mass of phase, x1 = 0.11 | 756
343.35 K, Liquid, Volume and mass of phase, x1 = 0.064 | 762
345.25 K, Liquid, Volume and mass of phase, x1 = 0.039 | 702
347.35 K, Liquid, Volume and mass of phase, x1 = 0.096 | 768
350.15 K, Liquid, Volume and mass of phase, x1 = 0.282 | 810
351.35 K, Liquid, Volume and mass of phase, x1 = 0.592 | 819
353.25 K, Liquid, Volume and mass of phase, x1 = 0.161 | 791
356.25 K, Liquid, Volume and mass of phase, x1 = 0.11 | 740
357.45 K, Gas, volume and mass of phase, x1 = 0.011 | 558
357.75 K, Liquid, Volume and mass of phase, x1 = 0.039 | 675
360.85 K, Liquid, Volume and mass of phase, x1 = 0.064 | 724
363.05 K, Liquid, Volume and mass of phase, x1 = 0.282 | 800
366.65 K, Liquid, Volume and mass of phase, x1 = 0.039 | 660
369.85 K, Liquid, Volume and mass of phase, x1 = 0.096 | 731
370.95 K, Liquid, Volume and mass of phase, x1 = 0.592 | 807
371.25 K, Liquid, Volume and mass of phase, x1 = 0.11 | 723
371.55 K, Liquid, Volume and mass of phase, x1 = 0.282 | 791
376.85 K, Gas, volume and mass of phase, x1 = 0.039 | 638
378.45 K, Gas, volume and mass of phase, x1 = 0.011 | 518
380.95 K, Liquid, Volume and mass of phase, x1 = 0.161 | 760
381.65 K, Liquid, Volume and mass of phase, x1 = 0.064 | 687
383.95 K, Liquid, Volume and mass of phase, x1 = 0.282 | 776
391.15 K, Liquid, Volume and mass of phase, x1 = 0.592 | 790
392.25 K, Liquid, Volume and mass of phase, x1 = 0.096 | 696
400.05 K, Gas, volume and mass of phase, x1 = 0.064 | 655
400.55 K, Liquid, Volume and mass of phase, x1 = 0.282 | 760
401.45 K, Gas, volume and mass of phase, x1 = 0.039 | 588
401.65 K, Liquid, Volume and mass of phase, x1 = 0.11 | 681
404.55 K, Gas, volume and mass of phase, x1 = 0.011 | 471
408.05 K, Liquid, Volume and mass of phase, x1 = 0.161 | 721
409.85 K, Liquid, Volume and mass of phase, x1 = 0.592 | 777
419.65 K, Liquid, Volume and mass of phase, x1 = 0.282 | 740
420.05 K, Liquid, Volume and mass of phase, x1 = 0.096 | 651
421.25 K, Gas, volume and mass of phase, x1 = 0.064 | 617
421.85 K, Liquid, Volume and mass of phase, x1 = 0.161 | 706
423.15 K, Liquid, Volume and mass of phase, x1 = 0.592 | 772
423.65 K, Liquid, Volume and mass of phase, x1 = 0.11 | 650
424.65 K, Gas, volume and mass of phase, x1 = 0.039 | 541
